Several values for one entry are separate records, joined by “and”; a condition that tells them apart may be missing. Equal values may be shown once. Read-outs that look alike come from different tables or passages of the source.
Legend:
[1] = test system: Citrobacter koseri (CKR) isolates; assay: MIC of compounds alone and combined with antibacterials, broth microdilution (CLSI); assay type: cell-based
How it was run: (§1)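 Broth microdilution in cation-adjusted Mueller-Hinton broth, inoculum 5.10^5 CFU/mL, 16-20 h at 35° C in ambient air, on genotyped isolates. Compound MIC, alone or with an antibacterial, taken visually as lowest concentration preventing growth; antibacterial MIC determined at each compound concentration.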

[2] = test system: Klebsiella pneumoniae (KPN) isolates; assay: as above; assay type: cell-based
How it was run: as §1

CC1(C)S[C@@H]2[C@H](NC(=O)[C@H](N)c3ccc(O)cc3)C(=O)N2[C@H]1C(=O)O [AMX, Amoxicillin]
MIC ATB in combination [1]: >128 µg/mL | MIC ATB in combination ([1]; CKO ROU, AF2 @ 8 μg/mL): 8 µg/mL | MIC ([1]; strain CKO ROU, genotype TEM-1, SHV-12, CTX-M-15, OXA-1, OXA-48): >256 µg/mL | MIC ([1]; strain CKO UFR149, genotype OXA-48): >128 µg/mL | MIC ([1]; strain CKO UFR150, genotype TEM-1, OXA-48): >128 µg/mL | MIC [2]: >128 µg/mL | MIC ATB in combination [2]: >128 µg/mL and 128 µg/mL and <128 µg/mL | MIC ATB in combination ([2]; KPN 6299, AF2 @ 8 μg/mL): 2 µg/mL | MIC ATB in combination ([2]; KPN 6299, CLA @ 4 μg/mL): >512 µg/mL | MIC ATB in combination ([2]; KPN 110376, AF2 @ 8 μg/mL): 0.5 µg/mL | MIC ATB in combination ([2]; KPN 131119, CLA @ 4 μg/mL): >512 µg/mL | MIC ATB in combination ([2]; KPN 160143, AF2 @ 8 μg/mL): <0.25 µg/mL | MIC ATB in combination ([2]; KPN 190551, AF2 @ 8 μg/mL): <0.25 µg/mL | MIC ATB in combination ([2]; KPN 200047, AF2 @ 8 μg/mL): <0.25 µg/mL | MIC ATB in combination ([2]; KPN 200047, CLA @ 4 μg/mL): 32 µg/mL | MIC ATB in combination ([2]; KPN 200327, AF2 @ 8 μg/mL): <0.25 µg/mL | MIC ATB in combination ([2]; KPN 200327, CLA @ 4 μg/mL): 32 µg/mL | MIC ATB in combination ([2]; KPN 260251, AF2 @ 8 μg/mL): 4 µg/mL | MIC ATB in combination ([2]; KPN 260376, AF2 @ 8 μg/mL): <0.25 µg/mL | MIC ATB in combination ([2]; KPN 270077, AF2 @ 8 μg/mL): 32 µg/mL | MIC ATB in combination ([2]; KPN 270077, CLA @ 4 μg/mL): 32 µg/mL | MIC ATB in combination ([2]; KPN 700603, AF2 @ 8 μg/mL): 4 µg/mL | MIC ATB in combination ([2]; KPN 700603, CLA @ 4 μg/mL): 8 µg/mL | MIC ATB in combination ([2]; KPN ARA, AF2 @ 8 μg/mL): <=0.25 μg/mL | MIC ATB in combination ([2]; KPN BAA-1898, CLA @ 4 μg/mL): >512 µg/mL | MIC ATB in combination ([2]; KPN LIB, AF2 @ 8 μg/mL): <=0.25 μg/mL | MIC ATB in combination ([2]; KPN LIB, CLA @ 4 μg/mL): >512 µg/mL | MIC ATB in combination ([2]; KPN UFR22_O, AF2 @ 8 μg/mL): 0.5 µg/mL | MIC ATB in combination ([2]; KPN UFR23, AF2 @ 8 μg/mL): 4 µg/mL | MIC ATB in combination ([2]; KPN UFR24, AF2 @ 8 μg/mL): 32 µg/mL | MIC ATB in combination ([2]; KPN UFR25, AF2 @ 8 μg/mL): <0.25 µg/mL | MIC ATB in combination ([2]; KPN UFR28, AF2 @ 8 μg/mL): <=0.25 μg/mL | MIC ATB in combination ([2]; KPN UFR33, AF2 @ 8 μg/mL): 8 µg/mL | MIC ATB in combination ([2]; KPN UFR43, AF2 @ 8 μg/mL): <0.25 µg/mL | MIC ATB in combination ([2]; KPN UFR53, AF2 @ 8 μg/mL): <0.25 µg/mL | MIC ATB in combination ([2]; KPN UFR77, AF2 @ 8 μg/mL): <0.25 µg/mL | MIC ATB in combination ([2]; KPN UFR80, AF2 @ 8 μg/mL): 64 µg/mL | MIC ATB in combination ([2]; KPN UFR218, CLA @ 4 μg/mL): 32 µg/mL | MIC ([2]; strain KPN 6299, genotype TEM-1, SHV-11, OXA-163): >1024 µg/mL | MIC ([2]; strain KPN 110376, genotype TEM-1, SHV-1, CTX-M-15, OXA-1, OXA-48): >256 µg/mL | MIC ([2]; strain KPN 121206, genotype SHV-1, NDM-1): >256 µg/mL | MIC ([2]; strain KPN 131119, genotype TEM-1, SHV-11, CTX-M-15, OXA-1, OXA-48): >256 µg/mL | MIC ([2]; strain KPN 140347, genotype CTX-M-15, NDM-1, antibiotic alone): >128 µg/mL | MIC ([2]; strain KPN 140513, genotype TEM-1, SHV-11, CTX-M-15, KPC-3): >256 µg/mL | MIC ([2]; strain KPN 160143, genotype TEM-1, SHV-1, CTX-M-15, KPC-2, OXA-1): >256 µg/mL | MIC ([2]; strain KPN 190128, genotype TEM-1, SHV-32, CTX-M-15, OXA-1): >256 µg/mL | MIC ([2]; strain KPN 190270, genotype TEM-1, SHV-76, CTX-M-15, OXA-1): >256 µg/mL | MIC ([2]; strain KPN 190425, genotype TEM-1, SHV-1, CTX-M-15, OXA-1): >256 µg/mL | MIC ([2]; strain KPN 190551, genotype TEM-1, SHV-1, CTX-M-15, OXA-1): >256 µg/mL | MIC ([2]; strain KPN 200047, genotype TEM-1, SHV-32, CTX-M-15, OXA-1): >256 µg/mL | MIC ([2]; strain KPN 200327, genotype TEM-1, SHV-1, CTX-M-15, OXA-1): >256 µg/mL | MIC ([2]; strain KPN 260251, genotype TEM-1, SHV-11, SHV-12, CTX-M-15, KPC-2): >256 µg/mL | MIC ([2]; strain KPN 260252, genotype TEM-1, SHV-11, KPC-3): >256 µg/mL | MIC ([2]; strain KPN 260376, genotype SHV-1, SHV-49, OXA-1): >256 µg/mL | MIC ([2]; strain KPN 270077, genotype TEM-1, SHV-1, CTX-M-15): >256 µg/mL | MIC ([2]; strain KPN 700603, genotype SHV-18, OXA-2): >256 µg/mL | MIC ([2]; strain KPN ARA, genotype TEM-1, SHV-11, CTX-M-15, OXA-1, OXA-48): >256 µg/mL | MIC ([2]; strain KPN BAA-1898, genotype TEM-1, SHV-11, SHV-12, KPC-2): >1024 µg/mL | MIC ([2]; strain KPN LIB, genotype SHV-11, OXA-48): >256 µg/mL | MIC ([2]; strain KPN UFR22_O, genotype TEM-1, SHV-1, OXA-48): >256 µg/mL | MIC ([2]; strain KPN UFR23, genotype TEM-1, SHV-1, OXA-48): >256 µg/mL

— US20200017495A1, “NOVEL HETEROCYCLIC COMPOUNDS AND THEIR USE IN PREVENTING OR TREATING BACTERIAL INFECTIONS” (priority 2017, published 2020)
